Laboratory results: patent publication US20260217698A1 (BEYANG THERAPEUTICS CO., LTD., priority 2022, published 2026)
Values after ≈ are worked out from the molar mass of the structure shown.

Assays:
[1] = target: T1, VEGFR1 (Homo sapiens, UniProt P17948); experiment: Kinase inhibition, Mobility Shift Assay/IMAP, VEGFR1; type: biochemical
T1 construct: purchased Invitrogen PR6731B
Procedure, shortened: (§1)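 Substrate conversion (phosphorylated vs non-phosphorylated) read by mobility shift on Caliper EZ Reader II and converted to % inhibition relative to no-enzyme and DMSO controls. IC50 fitted from % inhibition versus log compound concentration.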

[2] = test system: melanin; experiment: Binding capacity of compounds to melanin; type: in vitro ADME, cuttlefish (Sepia officinalis); conditions: cuttlefish (Sepia officinalis), melanin suspension (1 mg/mL); 1 mg/mL melanin in PBS pH 7.4, 2 μM compound, 2 h at 37° C.; read-out: Fu % (percentage of free drug)
Procedure, shortened: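 Compound (2 μM final) incubated with washed Sepia melanin (1 mg/mL, PBS pH 7.4) 2 h at 37° C with shaking; PBS with 0.1% BSA served as blank. Supernatants quantified by LC-MS/MS; bound fraction Fb derived from melanin versus blank concentration.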

[3] = target: T2, VEGFR2 (Homo sapiens, UniProt P35968); experiment: Kinase inhibition, Mobility Shift Assay/IMAP, VEGFR2; type: biochemical; set-up: purchased Carna 08-191
Procedure, shortened: as §1
Target sequence in this assay (P35968 790-1356 limits assumed): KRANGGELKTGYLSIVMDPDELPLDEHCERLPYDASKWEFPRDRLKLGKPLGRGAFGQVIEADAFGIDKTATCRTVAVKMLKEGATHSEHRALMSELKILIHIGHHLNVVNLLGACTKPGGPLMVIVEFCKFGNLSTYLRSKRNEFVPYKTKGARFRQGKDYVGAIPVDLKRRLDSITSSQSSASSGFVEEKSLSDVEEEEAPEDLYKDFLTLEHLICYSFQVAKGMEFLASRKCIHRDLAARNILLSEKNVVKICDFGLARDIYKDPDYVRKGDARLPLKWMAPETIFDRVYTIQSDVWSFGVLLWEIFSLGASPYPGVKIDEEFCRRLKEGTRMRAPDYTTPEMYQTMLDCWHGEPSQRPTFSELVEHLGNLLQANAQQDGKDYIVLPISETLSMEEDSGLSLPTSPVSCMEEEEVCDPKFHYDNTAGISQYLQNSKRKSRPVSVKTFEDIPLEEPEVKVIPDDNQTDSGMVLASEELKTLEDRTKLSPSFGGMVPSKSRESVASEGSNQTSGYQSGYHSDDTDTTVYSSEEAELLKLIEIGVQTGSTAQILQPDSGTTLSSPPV

[4] = target: T3, EGFR (Homo sapiens, UniProt P00533); experiment: Kinase inhibition, Mobility Shift Assay/IMAP, EGFR; type: biochemical
T3 construct: purchased Carna 08-115
T3 sequence (P00533 669-1210 limits assumed): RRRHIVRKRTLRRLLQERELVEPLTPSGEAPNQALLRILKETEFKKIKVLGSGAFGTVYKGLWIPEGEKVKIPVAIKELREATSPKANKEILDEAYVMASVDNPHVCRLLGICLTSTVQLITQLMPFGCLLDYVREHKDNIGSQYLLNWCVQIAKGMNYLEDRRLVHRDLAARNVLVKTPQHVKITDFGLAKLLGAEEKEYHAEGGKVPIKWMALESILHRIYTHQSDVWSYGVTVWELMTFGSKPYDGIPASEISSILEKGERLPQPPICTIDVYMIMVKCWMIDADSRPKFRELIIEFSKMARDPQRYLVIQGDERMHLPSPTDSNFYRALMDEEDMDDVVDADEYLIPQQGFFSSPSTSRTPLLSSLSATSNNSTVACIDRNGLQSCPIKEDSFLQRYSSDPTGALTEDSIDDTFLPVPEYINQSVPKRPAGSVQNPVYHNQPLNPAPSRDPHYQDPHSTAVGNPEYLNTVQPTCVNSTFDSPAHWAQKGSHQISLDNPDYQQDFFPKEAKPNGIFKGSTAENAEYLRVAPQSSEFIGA
Procedure, shortened: as §1

[5] = target: T4, TIE2 (Homo sapiens, UniProt Q02763); experiment: Kinase inhibition, Mobility Shift Assay/IMAP, TIE2; type: biochemical
T4 construct: purchased BPS 40270
T4 sequence (Q02763 23-1124): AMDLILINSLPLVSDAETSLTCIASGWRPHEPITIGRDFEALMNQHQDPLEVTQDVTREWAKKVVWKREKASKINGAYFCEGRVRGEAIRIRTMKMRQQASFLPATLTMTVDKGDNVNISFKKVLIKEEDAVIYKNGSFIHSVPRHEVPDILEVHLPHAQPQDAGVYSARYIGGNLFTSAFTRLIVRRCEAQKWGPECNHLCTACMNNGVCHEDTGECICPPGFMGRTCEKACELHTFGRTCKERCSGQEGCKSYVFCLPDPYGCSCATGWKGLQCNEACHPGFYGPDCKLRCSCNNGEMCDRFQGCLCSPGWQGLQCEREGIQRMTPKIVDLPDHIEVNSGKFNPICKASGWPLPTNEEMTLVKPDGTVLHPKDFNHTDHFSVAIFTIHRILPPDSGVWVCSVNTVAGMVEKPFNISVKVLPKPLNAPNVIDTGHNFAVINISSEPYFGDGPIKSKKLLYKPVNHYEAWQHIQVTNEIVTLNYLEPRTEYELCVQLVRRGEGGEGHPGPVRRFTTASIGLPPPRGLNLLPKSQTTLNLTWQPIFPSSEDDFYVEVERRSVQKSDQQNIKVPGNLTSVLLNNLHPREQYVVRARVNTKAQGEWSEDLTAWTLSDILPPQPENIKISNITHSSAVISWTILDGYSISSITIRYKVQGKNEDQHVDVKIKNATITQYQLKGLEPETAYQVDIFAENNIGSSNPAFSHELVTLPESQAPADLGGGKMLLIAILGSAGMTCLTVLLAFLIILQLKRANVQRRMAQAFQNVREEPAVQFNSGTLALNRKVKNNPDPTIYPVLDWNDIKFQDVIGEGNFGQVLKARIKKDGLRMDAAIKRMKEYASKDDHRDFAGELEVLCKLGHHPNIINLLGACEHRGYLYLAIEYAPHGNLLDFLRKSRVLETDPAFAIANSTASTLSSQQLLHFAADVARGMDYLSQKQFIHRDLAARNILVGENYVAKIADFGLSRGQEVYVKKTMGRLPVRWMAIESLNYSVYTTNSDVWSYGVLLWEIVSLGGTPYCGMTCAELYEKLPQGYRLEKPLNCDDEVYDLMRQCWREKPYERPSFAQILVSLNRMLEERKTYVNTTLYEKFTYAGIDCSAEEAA
Procedure, shortened: as §1

[6] = target: T5, VEGFR3 (Homo sapiens, UniProt P35916); experiment: Kinase inhibition, Mobility Shift Assay/IMAP, VEGFR3; type: biochemical
T5 construct: purchased Invitrogen PV4129
Procedure, shortened: as §1

[7] = Solubility test in buffer, LC-MS; type: physicochemical; conditions: aqueous buffer, thermodynamic from solid, room temperature, shaking 8 h, pH not given (method: pH 2.0, 6.5, 7.4)
Procedure: Accurately weigh 3 portions of about 2 mg of the compound, and add appropriate volumes of buffers with the pHs of 2.0, 6.5, and 7.4 respectively to obtain a solution with a concentration of 2 mg/mL. After sonication for 10 min, fix them on a shaker and shaking for 8 h at room temperature. After shaking, sonicate for 10 min and centrifuge for 15 min at 13,000 rpm. Pipette 0.1 mL of supernatant into a new tube, shake and rinse it with 5 mL, and discard the liquid. Transfer 0.5 mL of the supernatant again to a new tube, centrifuge it for 15 min at 13,000 rpm, then collect the supernatant (if necessary, dilute with water) and analyze it by LC-MS. The sample concentrations at 3~5 points are subjected to fitting and reticle for quantification.

[8] = target: T2, VEGFR2; experiment: Inhibition of VEGF-induced VEGFR2 autophosphorylation (pVEGFR2) in HUVEC cells, ELISA; type: cell-based; set-up: endogenous in cells; host or cells: HUVEC; conditions: 50 ng/mL human VEGF, compound 1 h
Text: Vascular endothelial growth factor receptor 2 (VEGFR2) is a primary receptor for VEGF-induced endothelial cell signaling. After ligand binding, VEGFR2 is autophosphorylated and activated. The main function of signaling from VEGFR2 is to induce vascularization during development and after tissue injury, and to bypass blocked blood vessels. Pathologically, VEGF and VEGFR2 are involved in tumor angiogenesis and vascular leakage. They are considered to be main participants in many different cancers and ocular diseases that accompany pathological neovascularization. This assay measured the ability of the compounds to inhibit VEGF-induced VEGFR2 autophosphorylation (pVEGFR2) in HUVEC cells by using ELISA.
Culture cells in a cell culture flask to reach a fusion degree of 60%-80% before cell inoculation. Dilute the cell suspension to […] with a pre-warmed complete medium. Add 80 μL of the cell suspension to all wells of a 96-well cell plate (Corning-3599); and incubate the plate overnight at 37° C. in the presence of 5% CO2. Dissolve the compound powder to 10 mM with DMSO and store it in a nitrogen cabinet. Compound dilution plate: Add a reference compound Ponatinib or a compound to be tested to a 96 V-well plate (Axygen-WIPP 2280) at concentrations achieved as follows: performing 3-fold gradient dilution starting from 5 mM (5 μL of 10 mM compound solution plus 5 μL of DMSO) for a total of 8 concentration points. […] Transfer 20 μL of the diluted compound from the intermediate plate to a cell plate. Then, incubate the cell plate for 1 h at 37° C. in the presence of 5% CO2. After the compound was treated for 1 h, add 25 μL of 250 ng/ml human VEGF at a final concentration of 50 ng/mL to a 96-well plate; and incubate the plate for 5 min at 37° C. in the presence of 5% CO2, centrifuge the plate for 10 min at 3,000 rpm, remove the medium and wash the cells once with 300 μL of pre-chilled DPBS per well. Then, centrifuge the plate for 10 min at 4,000 rpm, remove DPBS, and add 110 μL of pre-chilled 1× cell lysis buffer per well to the 96-well plate. Shake the plate for 40 min at 4° C. Then, freeze the plate in a refrigerator at −80° C. On the next day, remove the plate from the refrigerator at −80° C., thaw the plate, centrifuge the plate for 10 min at 3500 rpm, and add 100 μL of the supernatant per well to an ELISA plate. Seal the plate and incubate it for 2 h at 37° C. Wash the wells 4 times with 1× wash buffer. Add 100 μL of recombinant detection antibody per well. Seal the plate, incubate the plate for 1 h at 37° C., and repeat the step of plate washing. Add 100 μL of secondary antibody per well. Seal the plate, incubate the plate for 30 min at 37° C., and repeat the step of plate washing. Add 100 μL of TMB (protected from light) per well. Seal the plate, incubate the plate for 30 min at 37° C., and add 100 μL of the stop solution per well. Gently shake for 30 sec, measure the absorbance with a SpectraMax® 340 PC 384 Absorbance Microplate Reader within 30 min, and read an optical density value at 450 nm. Conduct data analysis using XL Fit software:
Conduct curve fitting using the 4 Parameter Logistic Model or Sigmoidal Dose-Response Model to obtain IC50 values.
X indicates the log value of compound concentration, Y indicates the inhibition rate (% inhibition), Top indicates the readout of the negative control wells, and Bottom indicates the readout of the positive control well.
Target sequence in this assay (P35968 20-1356): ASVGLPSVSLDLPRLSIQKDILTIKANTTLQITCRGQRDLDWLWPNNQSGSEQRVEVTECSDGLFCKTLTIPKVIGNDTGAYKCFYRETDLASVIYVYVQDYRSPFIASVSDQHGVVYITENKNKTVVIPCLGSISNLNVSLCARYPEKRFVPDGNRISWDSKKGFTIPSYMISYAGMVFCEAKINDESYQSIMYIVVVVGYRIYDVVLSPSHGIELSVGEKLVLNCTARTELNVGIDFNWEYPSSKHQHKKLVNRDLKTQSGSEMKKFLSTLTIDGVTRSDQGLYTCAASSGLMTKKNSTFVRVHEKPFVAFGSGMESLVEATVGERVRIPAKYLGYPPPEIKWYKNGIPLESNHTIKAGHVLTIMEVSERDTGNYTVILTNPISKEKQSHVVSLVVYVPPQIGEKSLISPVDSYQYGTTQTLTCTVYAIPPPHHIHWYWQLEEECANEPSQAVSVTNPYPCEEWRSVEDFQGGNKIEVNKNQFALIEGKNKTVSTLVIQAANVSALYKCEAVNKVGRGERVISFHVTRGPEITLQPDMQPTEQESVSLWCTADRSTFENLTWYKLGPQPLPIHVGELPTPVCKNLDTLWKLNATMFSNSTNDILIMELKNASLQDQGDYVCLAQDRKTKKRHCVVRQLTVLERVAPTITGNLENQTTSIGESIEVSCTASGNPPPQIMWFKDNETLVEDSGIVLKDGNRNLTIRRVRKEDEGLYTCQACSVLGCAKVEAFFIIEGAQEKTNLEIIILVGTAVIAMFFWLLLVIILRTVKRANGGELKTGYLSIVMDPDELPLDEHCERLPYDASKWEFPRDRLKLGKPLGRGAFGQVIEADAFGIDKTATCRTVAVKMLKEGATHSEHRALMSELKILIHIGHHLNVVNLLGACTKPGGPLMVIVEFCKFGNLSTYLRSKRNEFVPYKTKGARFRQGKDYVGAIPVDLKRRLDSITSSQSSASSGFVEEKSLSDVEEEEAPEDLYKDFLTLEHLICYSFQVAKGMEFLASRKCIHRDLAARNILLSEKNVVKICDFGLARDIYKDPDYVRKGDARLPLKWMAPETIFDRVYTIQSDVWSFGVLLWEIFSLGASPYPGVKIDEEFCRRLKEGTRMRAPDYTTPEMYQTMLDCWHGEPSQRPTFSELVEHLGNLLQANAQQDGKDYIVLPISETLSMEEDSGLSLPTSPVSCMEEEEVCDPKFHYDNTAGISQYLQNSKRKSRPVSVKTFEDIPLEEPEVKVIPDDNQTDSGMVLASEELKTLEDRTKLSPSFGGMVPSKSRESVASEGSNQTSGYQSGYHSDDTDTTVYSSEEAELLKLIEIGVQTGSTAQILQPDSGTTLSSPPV

[9] = test system: HUVEC cells; experiment: Inhibition of VEGF-induced HUVEC cell proliferation, CellTiter Glo; type: cell-based; conditions: Homo sapiens, 20 ng/ml VEGF, 72 hours
Text: In this experiment, human umbilical vein endothelial cells (HUVEC, Lonza) were used. HUVEC cells are primary cells isolated from umbilical veins. This cell line is a model system to study the functions of endothelial cells. Endothelial cell proliferation in response to VEGF is crucial to the pathological angiogenesis associated with conditions such as tumor development and ocular neovascular diseases.
In this assay, a luciferase bioluminescence assay (CellTiter GLU™, Promega) is used to determine the inhibitory activity of the compounds against VEGF-induced HUVEC cell proliferation and viability. CellTiter GLO™ is a homogeneous method for quantifying the count of viable cells in culture based on ATP, an indicator of metabolically active cells. In this assay, the compound was incubated with HUVEC cells for 72 hours, and then the inhibitory activity of the resulting compound against VEGF-induced HUVEC cell proliferation was measured on the En Vision plate reader.
With the RPMI-1640 medium (plus 5% FBS, 1% Penicillin-Streptomycin) used for the HUVEC cell proliferation experiment, add a cell suspension to a 96-well plate at 100 μl per well, i.e., 4000 HUVEC cells/well, and incubate them overnight in a 5% CO2 incubator at 37° C. (serum starvation). After 24 hours, add 96 μl of the experimental medium to the cell wells, and then add 2 μl of the compound to the cell wells; and after 1 hour following the addition of the compound, add 2 μl of 2 μg/ml VEGF to the cell wells. Add 0.1% DMSO and 20 ng/ml VEGF to cell wells to serve as high-reading control wells. Take cell-free wells with only medium as low-reading control wells. […] After 72 hours of incubation of the cell plate in the incubator, hold the cell plate to be tested at room temperature and discard 100 μl of medium per well. Add 100 μl of CTG reagent (CellTiter Glo kit) per well, oscillate the cell plate in a fast oscillator for 3 minutes, and keep the cell plate at room temperature in the dark for 30 minutes. Read the chemiluminescence signal value with the Envision instrument.
X indicates the log value of compound concentration, Y indicates the inhibition rate (% inhibition), Top indicates the readout of the high-reading control well.

T1 sequence (P17948 27-1338): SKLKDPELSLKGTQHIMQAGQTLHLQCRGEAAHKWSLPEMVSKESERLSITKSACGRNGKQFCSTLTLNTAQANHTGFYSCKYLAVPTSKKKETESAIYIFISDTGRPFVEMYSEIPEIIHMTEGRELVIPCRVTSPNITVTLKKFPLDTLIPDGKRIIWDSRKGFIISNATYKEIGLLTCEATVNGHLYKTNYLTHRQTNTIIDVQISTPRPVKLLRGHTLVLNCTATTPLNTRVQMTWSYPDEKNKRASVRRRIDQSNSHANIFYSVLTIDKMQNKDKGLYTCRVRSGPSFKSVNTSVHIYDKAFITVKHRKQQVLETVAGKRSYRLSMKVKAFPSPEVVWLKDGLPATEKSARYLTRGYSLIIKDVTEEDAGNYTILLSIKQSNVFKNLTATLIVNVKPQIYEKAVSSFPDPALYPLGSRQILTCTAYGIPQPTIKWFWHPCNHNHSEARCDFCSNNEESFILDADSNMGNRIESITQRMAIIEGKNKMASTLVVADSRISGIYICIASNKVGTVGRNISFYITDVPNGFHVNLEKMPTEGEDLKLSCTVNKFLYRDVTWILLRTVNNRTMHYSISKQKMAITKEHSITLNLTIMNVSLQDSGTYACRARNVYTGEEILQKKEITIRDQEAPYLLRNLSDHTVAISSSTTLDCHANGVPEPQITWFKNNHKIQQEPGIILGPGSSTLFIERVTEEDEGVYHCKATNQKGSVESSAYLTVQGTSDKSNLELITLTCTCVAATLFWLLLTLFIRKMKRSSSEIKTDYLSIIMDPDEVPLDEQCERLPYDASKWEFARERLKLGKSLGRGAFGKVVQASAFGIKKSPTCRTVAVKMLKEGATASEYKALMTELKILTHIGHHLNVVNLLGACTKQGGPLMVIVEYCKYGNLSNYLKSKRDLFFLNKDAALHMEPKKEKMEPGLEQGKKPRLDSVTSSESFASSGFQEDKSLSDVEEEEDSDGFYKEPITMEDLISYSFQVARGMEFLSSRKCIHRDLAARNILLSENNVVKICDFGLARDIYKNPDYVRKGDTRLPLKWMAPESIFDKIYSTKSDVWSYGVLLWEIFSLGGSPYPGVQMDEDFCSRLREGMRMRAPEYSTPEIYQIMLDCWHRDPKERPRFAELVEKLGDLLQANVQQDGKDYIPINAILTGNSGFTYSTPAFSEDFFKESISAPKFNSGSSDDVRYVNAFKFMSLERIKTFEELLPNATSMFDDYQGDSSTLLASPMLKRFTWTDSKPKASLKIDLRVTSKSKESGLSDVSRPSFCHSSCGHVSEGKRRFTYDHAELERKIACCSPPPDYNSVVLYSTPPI

SMILES | IC50 [1] [nM] | fraction unbound at 2 h, 2 μM [2] | IC50 [3] [nM] | IC50 [4] [nM] | IC50 [5] [nM] | IC50 [6] [nM] | solubility at 8 h [7] [µg/mL] | IC50 [8] [nM] | IC50 [9] [nM]
CN1CCN(CCCNC(=O)Nc2snc(OCc3ccc(F)c(C(=O)NC4CC4)c3)c2C(N)=O)CC1 [Compound T078, 3-[[3-(cyclopropylcarbamoyl)-4-fluoro-phenyl]methoxy]-5-[3-(4-methylpiperazin-1-yl)propylcarbamoylamino]isothiazole-4-carboxamide] | 5.72 | 0.0241 | 2.09 | 16100 | 4060 | 16.8 | 800 (≈ 1500 µM) | 56.5 | 
CN1CC[C@H](CCNC(=O)Nc2snc(OCc3cc4c(cc3F)CCO4)c2C(N)=O)C1 [Compound T095, 3-[(5-fluoro-2,3-dihydrobenzofuran-6-yl)methoxy]-5-[2-[(3S)-1-methylpyrrolidin-3-yl]ethylcarbamoylamino] isothiazole-4-carboxamide] |  | 0.0469 | 4.7 | 11400 |  |  |  | 93 | 55.8
NC(=O)c1c(OCc2cc(C(=O)NC3CC3)ccc2F)nsc1NC(=O)NCCCN1CCCC1 [Compound T098, 3-((5-(cyclopropylcarbamoyl)-2-fluorobenzyl)oxy)-5-(3-(3-(pyrrolidin-1-yl)propyl)ureido)isothiazole-4-carboxamide] |  | 0.0666 | 1.56 | 16500 | 4910 |  |  | 132 | 
NC(=O)c1c(OCc2cc(C(=O)NC3CC3)c(F)cc2F)nsc1NC(=O)NCCCCN1CCCC1 [Compound T128, 3-[[5-(cyclopropylcarbamoyl)-2,4-difluoro-phenyl]methoxy]-5-(4-pyrrolidin-1-ylbutylcarbamoylamino)isothiazole-4-carboxamide] |  |  | 1.2 |  | 1180 |  |  | 4.9 | 
NC(=O)c1c(OCc2c(F)cc3c(c2F)OCC3)nsc1NC(=O)NCCCCN1CCCC1 [Compound T129, 3-[(5,7-difluoro-2,3-dihydrobenzofuran-6-yl)methoxy]-5-(4-pyrrolidin-1-ylbutylcarbamoylamino)isothiazole-4-carboxamide] |  | 0.0889 | 11.9 | 15600 |  |  |  | 71 | 
COc1ccc(F)c(COc2nsc(NC(=O)NCCCCN3CCCCC3)c2C(N)=O)c1F [Compound T131, 3-[(2,6-difluoro-3-methoxy-phenyl)methoxy]-5-[4-(1-piperidyl)butylcarbamoylamino]isothiazole-4-carboxamide] |  | 0.0629 | 17.4 | 15000 |  |  | 278 (≈ 559 µM) | 19 | 
NC(=O)c1c(OCc2c(F)cc3c(c2F)OCC3)nsc1NC(=O)NCCCCN1CC[C@H](O)C1 [Compound T134, 3-[(5,7-difluoro-2,3-dihydrobenzofuran-6-yl)methoxy]-5-[4-[(3S)-3-hydroxypyrrolidin-1-yl]butylcarbamoylamino]isothiazole-4-carboxamide] |  | 0.0401 | 6.6 | 20600 |  |  |  | 16 | 
COc1cc(OC)c(F)c(COc2nsc(NC(=O)NCCC3CCN(C)CC3)c2C(N)=O)c1F [Compound T145, 3-[(2,6-difluoro-3,5-dimethoxy-phenyl)methoxy]-5-[2-(1-methyl-4-piperidyl)ethylcarbamoylamino]isothiazole-4-carboxamide] |  | 0.0437 | 1.39 | > 60000 |  |  |  | 2.2 | 
CN1CCN(CCNC(=O)Nc2snc(OCc3ccc(F)c(C(=O)NC4CC4)c3)c2C(N)=O)CC1 [Compound T149, 3-[[3-(cyclopropylcarbamoyl)-4-fluoro-phenyl]methoxy]-5-[2-(4-methylpiperazin-1-yl)ethylcarbamoylamino]isothiazole-4-carboxamide] | 2.39 |  | 2.35 | 12000 |  | 10 | 1580 (≈ 3040 µM) | 52.2 | 
NC(=O)c1c(OCc2ccc(F)c(C(=O)NC3CC3)c2)nsc1NC(=O)NCCCCN1CCCC1 [Compound T151, 3-[[3-(cyclopropylcarbamoyl)-4-fluoro-phenyl]methoxy]-5-(4-pyrrolidin-1-ylbutylcarbamoylamino)isothiazole-4-carboxamide] | 1.53 |  | 1.75 | 10700 |  | 3.91 | 1340 (≈ 2590 µM) | 68.4 | 
